The METLIN SMRT retention time set (Domingo-Almenara et al. 2019)

Test: gradient 5% acetonitrile 3 min, to 50% in 2 min, to 85% in 15 min, held 3 min, 100 µL/min
Conditions: column: Zorbax Extend-C18 2.1 x 50 mm; eluents: water / acetonitrile, 0.1% formic acid
Procedure, shortened: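 Retention times come from adduct peaks that were picked computationally and then checked by hand. The standards, pure and pooled in mixtures of ~100 molecules, were run on a Zorbax Extend-C18 column (2.1 × 50 mm, 1.8 μm) at 100 μL/min with water and acetonitrile, each with 0.1% formic acid. Detection was by quadrupole time-of-flight mass spectrometry in positive and negative ionization mode, with a dead volume of 40 μL and a dwell volume of 900 μL.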

| Compound | RP-LC retention time [s] |
| --- | --- |
| Cc1ccccc1-n1c(=O)c2sccc2n(Cc2nc(-c3ccc(Cl)cc3)no2)c1=O | 1090 |
| COc1ccccc1-c1nc2nccc(-c3ccc(Br)s3)n2n1 | 1020 |
| O=C(CCCn1ncn2c(cc3occc32)c1=O)N1CCN(c2ccccn2)CC1 | 577 |
| CCc1cc(=O)n(CC(=O)NCc2ccc3c(c2)OCO3)c(-c2ccccc2)n1 | 1000 |
| O=S(=O)(c1ccccc1-c1nc(-c2ccccc2)no1)N1CCN(C2CCCCC2)CC1 | 755 |
| CN(C)c1cc(N2CCCC(NC(=O)Cc3ccsc3)C2)ncn1 (centres undefined) | 870 |
| CN(CCNc1nc2ccncc2n(Cc2ccccc2)c1=O)C1CCCCC1 | 573 |
| Cc1ccc(CNC(=O)Cn2c(=O)cc(-c3nc(C)no3)c3ccccc32)cc1 | 857 |
| CCOc1cccc(-c2noc(Cn3ncn4nc(-c5ccc(C)cc5C)cc4c3=O)n2)c1 | 1330 |
| COCCN1CCCc2ccc(NC(=O)c3ccc(Br)o3)cc21 | 913 |
| O=C(c1cccnc1N1CCNC(c2ccccc2)C1)N1CCSCC1 (centres undefined) | 606 |
| COc1ccc(-c2c(C)noc2NC(C)=O)cc1S(=O)(=O)Nc1ccc(Cl)cc1C | 820 |
| c1ccc(-c2nc(-c3cnccn3)no2)c(OC2CCN(C3CCSCC3)C2)c1 (centres undefined) | 653 |
| O=C(Nc1ccccc1)N1CCN(Cc2nc3cc(Cl)ccc3o2)CC1 | 716 |
| O=C(NCCCn1c(C(F)(F)F)nc2cccnc21)Nc1ccccc1 | 776 |
| CCOC(=O)c1c(C)[nH]c(CCC(=O)NCc2ccc3c(c2)OCO3)c1C | 738 |
| Cc1ccc(N2CCC(NC(=O)c3ccc(C#N)cc3)C2=O)cc1C (centres undefined) | 854 |
| Cc1ccc(C2=NC3(CCN(C(=O)c4ccco4)CC3)ON2)cc1 | 747 |
| CC(C)Cc1noc(C2(F)CCN(S(=O)(=O)c3ccc(F)cc3F)CC2)n1 | 1150 |
| O=C(CC(=O)c1ccccc1)Nc1ccc2c(c1)OCCO2 | 769 |
| Cc1ccc2nc(-c3ccccc3F)cc(C(N)=O)c2c1 | 778 |
| COc1cc(NC(=O)NC(C(=O)N2CCc3ccccc32)C(C)C)cc(OC)c1 (centres undefined) | 982 |
| CCCCN(C)c1nc(-c2ccc(C)cc2)nc2ccccc12 | 819 |

| Compound | RP-LC retention time [s] |
| --- | --- |
| CCn1cc(C(=O)Nc2cc(C)ccc2C)c2cccnc21 | 854 |
| Cc1nn(C(C)C(=O)NC2CCCCC2)c(=O)c2nn(-c3ccccc3)c(C)c12 (centres undefined) | 879 |
| COc1ccccc1CNC(=O)C1CCN(S(C)(=O)=O)c2ccccc2O1 (centres undefined) | 807 |
| COc1ncc(C(=O)N2CCN(c3ccccc3Cl)CC2)cn1 | 811 |
| COc1cccc(CNC(=O)Cn2cnc3nc(N4CCCC(C(=O)NC5CC5)C4)sc3c2=O)c1 (centres undefined) | 666 |
| O=C(NCCc1ccco1)c1cc2n(n1)CCCN(Cc1ccc(Cl)cc1)C2=O | 857 |
| O=C(CSc1ccc(NC(=O)c2ccco2)cc1)Nc1nc(-c2ccccc2)cs1 | 966 |
| Cc1ccc(S(=O)(=O)NCc2c(-c3ccccc3)nc3sc(C)nn23)cc1 | 858 |
| CCOc1ccc2ncc(S(=O)(=O)c3ccc(C)c(C)c3)c(N3CCN(C)CC3)c2c1 | 658 |
| C=CCNC(=O)c1cc(=O)[nH]c2c(Cl)cccc12 | 641 |
| COC(=O)c1ccc(-c2nc3cnccn3c2Nc2ccc(C)cc2C)cc1 | 1010 |
| O=C1COc2c(CCNCCN(C(=O)CCNCCc3ccc(Cl)c(Cl)c3)C3CCCCC3)ccc(O)c2N1 | 691 |
| Cc1nnc(N2CCCC(C(=O)NCCc3ccccc3)C2)c2nn(-c3ccccc3)c(C)c12 (centres undefined) | 726 |
| Nc1cc(C2CCN(C(=O)c3cccc(Br)c3)CC2)no1 | 709 |
| Cc1[nH]c(C(=O)N2CCCC(C(=O)NC(C)C)C2)c(C)c1C(=O)OC(C)C (centres undefined) | 770 |
| O=c1c2cc(-c3ccc(F)cc3)nn2ccn1Cc1noc(CN2CCc3ccccc32)n1 | 1050 |
| CC(C)n1cnc(S(=O)(=O)N2CCC(C(=O)NCCCc3ccccc3)CC2)c1 | 764 |
| CCn1c(CN(C)C(=O)Nc2ccc(Br)cc2)nc2cc(C(=O)N(C)C)ccc21 | 657 |
| COc1cc2oc(=O)c(CC(=O)N3CCN(c4ccccn4)CC3)c(C)c2cc1OC | 588 |
| CCCN(CC(=O)N(Cc1ccco1)CC1CCCO1)C(=O)c1ccc2c(c1)OCO2 (centres undefined) | 770 |
| CCOC(=O)c1ccc(NC(=O)c2cc3ccccc3c(=O)s2)cc1 | 947 |
| CCc1ccc(NC(=O)N2CC(n3cnnc3C3CCOCC3)C2)cc1 | 599 |
| Cc1ccc(-c2cc3c(=O)n(Cc4noc(CN5CCC(C)CC5)n4)ccn3n2)c(C)c1 | 742 |

| Compound | RP-LC retention time [s] |
| --- | --- |
| Cc1cc(=O)n(CC(=O)NCc2ccc(F)cc2Cl)c(N)n1 | 861 |
| CSc1cccc(NC(=O)Cn2cnc3nc4c(cc3c2=O)CCCC4)c1 | 755 |
| Cc1ccc(N2CCC(NC(=O)c3ccc4nc[nH]c4c3)C2=O)cc1 (centres undefined) | 607 |
| COC(=O)C1=CN(c2cccc(C#N)c2)c2cc(F)ccc2S1(=O)=O | 763 |
| CC(C)NC(=O)C1CCCN(c2nc3ncn(CC(=O)NC4CCCC4)c(=O)c3s2)C1 (centres undefined) | 1210 |
| CC(C)Cc1ccc(S(=O)(=O)N2CCC3(CCC(CN4CCN(C)CC4)O3)CC2)cc1 (centres undefined) | 688 |
| Cc1nn(C(C)C(=O)NCCCOC(C)C)c(=O)c2nn(-c3ccccc3)c(C)c12 (centres undefined) | 771 |
| O=C(Nc1ccc(Cl)cc1)N1CCc2nc[nH]c2C1 | 594 |
| Nc1cc(C(=O)Nc2ccccc2F)ccc1N1CC2CC(C1)c1cccc(=O)n1C2 (centres undefined) | 740 |
| Cc1cc(OCC(=O)NCc2ccco2)nc(N2CCCCCC2)n1 | 572 |
| O=C(CC1CCCCC1)N1CCN(c2ccc(=O)n(-c3ccc(F)cc3)n2)CC1 | 901 |
| O=C(C1CC1)N1CCCCC1c1nc(-c2cnccn2)no1 (centres undefined) | 638 |
| CN(C)S(=O)(=O)c1ccc(-c2nnc(C(=O)NCc3ccc(C(F)(F)F)cc3)o2)cc1 | 940 |
| O=C(NCc1ccc(N2CCOCC2)nc1)c1ccc(C(F)(F)F)cc1 | 642 |
| COc1ccc(OC)c(NC(=O)c2c(C)oc3nc(C)nc(N4CCOCC4)c23)c1 | 818 |
| CCc1nnc2cc(N3CCN(C(=O)Nc4ccc(C)cc4)CC3)cnn12 | 649 |
| O=C(C1CC(=O)N(C2CCCCCC2)C1)N1CCCN(c2ccc(=O)n(-c3ccccc3)n2)CC1 (centres undefined) | 740 |
| CCCNC(=O)C1CCCN(c2nc3ncn(CC(=O)Nc4c(C)cccc4CC)c(=O)c3s2)C1 (centres undefined) | 727 |
| COc1ccccc1NC(=O)c1oc2ccccc2c1NC(=O)c1c(F)cccc1Cl | 1180 |
| CCc1nc(OCC(=O)Nc2cc(OC)cc(OC)c2)c2ccccc2n1 | 720 |
| O=C(c1ccccc1F)N1CCC(COCc2ccccc2)CC1 | 945 |
| COc1cc(C(=O)NC2CCCNC2)cc(OC)c1OC (centres undefined) | 621 |
| COCCN(Cc1ccc(F)cc1)Cc1cc(=O)c2cc(Cl)ccc2[nH]1 | 880 |

| Compound | RP-LC retention time [s] |
| --- | --- |
| Cc1ccc(NC(=O)N2CCC3(CC2)NC(=O)c2ccccc2O3)c(C)c1 | 750 |
| CC1(C(=O)NCc2ccc(F)cc2)CN(S(C)(=O)=O)CC(=O)N1c1cccc(Cl)c1 (centres undefined) | 805 |
| CCN1CCn2cc(C(=O)N3CCN(c4ccccc4Cl)CC3)nc2C1 | 622 |
| COC(=O)C1=C(CN2CCN(C)CC2)NC(=O)NC1c1cc(C)ccc1C (centres undefined) | 614 |
| O=c1c2cc(-c3ccccc3)nn2ccn1Cc1noc(CN2CCCCCCC2)n1 | 705 |
| Cc1c(Cc2ccccc2)[n+](=O)c2ccccc2n1[O-] | 1020 |
| O=C(NCc1cccnc1)C1CN(C(=O)c2cccs2)CC12CCCCC2 (centres undefined) | 619 |
| Cc1nc(-c2noc(-c3ccc(F)cc3)n2)cn1CC(=O)Nc1ccc(Cl)cc1 | 922 |
| CCCn1cnnc1C1CCCCN1S(=O)(=O)c1cccnc1 (centres undefined) | 580 |
| O=C(c1cn2cc(Cl)ccc2n1)N1CCN(c2ccccc2Cl)CC1 | 946 |
| CCCc1sc(NCc2cccc(OC)c2O)nc1-c1cc(C)ccc1C | 911 |
| O=C(O)C1CCN(c2nc3ccc(-c4ccccc4F)nc3s2)CC1 | 869 |
| Cc1cc(C)n(CCN2CCN(C(=O)Cc3cccs3)CC2)n1 | 548 |
| CC(C)(C)c1ccc(S(=O)(=O)N2CCC(C(=O)NCc3cscn3)CC2)cc1 | 869 |
| Cc1ccc(Cl)cc1N1C(=O)CN(S(C)(=O)=O)CC1(C)C(=O)NC1CCCCCCC1 (centres undefined) | 980 |
| CC(C)c1nc(N2CCN(c3ccccc3)CC2)ncc1C(=O)O | 868 |
| CN1C(=O)CCc2cc(C(=O)NC3CC3)ccc21 | 626 |
| CCOC(=O)c1c(C)[nH]c(C(=O)N2CCC(CC(=O)N3CCOCC3)CC2)c1C | 675 |
| CCOC(=O)c1ccc(NC(=O)N2CCCC2c2cc(C)on2)cc1 (centres undefined) | 809 |
| CC(=O)N[C@@H]1CN(C(=O)COc2ccc(Cl)cc2)C[C@H]1CO | 633 |
